Experimental data: patent publication US10294244B2, “2,3-dihydro-thiazolo[3,2-A]pyridin-5-one derivatives, intermediates thereof, and their use as antibacterial agents” (Quretech Bio AB, priority 2014, dated 2019)

Test system: C. trachomatis serovar LGV-L2
Assay: Inhibition of infectious Chlamydia progenies (C. trachomatis infectivity, reinfection of HeLa cells, IFU count)
Format: cell-based
Settings: infected HeLa cells, MOI 0.3, compound added 1 hpi, 44-48 h, relative to DMSO-treated control; for inhibition at 10 µM: 10 uM compound; for inhibition at 50 µM: 50 uM compound; for inhibition at 100 µM: 100 uM compound
Experimental: Cell Culture, C. trachomatis Infections, and Determination of C. trachomatis Infectivity.
HeLa cells were infected with C. trachomatis serovar LGV-L2 at an MOI of 0.3. At 1 hpi, RPMI media containing the different dilutions of the tested compounds in DMSO were added. The different compounds were dissolved to 20 mM in DMSO and were then diluted with RPMI media to be added at 2.5 to 100 μM. After 44-48 h incubation, the cells were osmotically lysed by the addition of cold sterile distilled water to release infectious EB progeny. 5×SPG was added to equalize the osmotic pressure to a 1×SPG isotonic condition. An equal amount of HBSS (Hanks balanced salt solution) (Gibco/Invitrogen) was added to the lysate (yielding a 1:1 dilution) and 10-fold serial dilutions of the resulting mixture was used to infect fresh HeLa cells. At 1 hpi, the inoculum was replaced with RPMI media and the infection allowed to progress for 44-48 hours before fixation and staining. Fixation was performed by adding methanol for 5 minutes and the cells were subsequently washed with phosphate buffered saline (PBS). The chlamydial inclusions were stained by a primary rabbit anti-Chlamydia antibody (generated in-house) and a secondary donkey anti-rabbit FITC-labelled antibody (Jackson ImmunoResearch). The DNA of the cells and Chlamydia was stained by the addition of DAPI. The stained cells were analyzed by an ArrayScan automated scanner (ArrayScan VTI HCS, Thermo Scientific). Data were presented as the relative numbers of IFUs in treated infections compared to the numbers of IFUs in DMSO-treated control infections.
The compounds of Examples 1-33 were tested for inhibition of infectious Chlamydia progenies at concentrations of 2.5 μM, 10 μM, 50 μM and 100 μM. In this document μM stands for micromolar. The compounds of the present disclosure were considered to have antibacterial activity if they provided 50% or more inhibition of infectious Chlamydia progenies using at least one of the tested concentrations in Table 1.

CS(=O)(=O)Nc1c(Cc2cccc3ccccc23)cc(=O)n2c1SC[C@H]2C(=O)Nc1ccccc1 [Example 25, Anilino{7-(methylsulfonylamino)-6-[(1-naphthyl)methyl]-4-oxo-1-thia-3a-aza-3-indanyl}formaldehyde]
inhibition at 10 µM: 97% | inhibition at 50 µM: 97%

CC(=O)Nc1c(Cc2cccc3ccccc23)cc(=O)n2c1SC[C@H]2C(=O)Nc1ccccc1 [Example 26, 1-{3-Anilinocarbonyl-6-[(1-naphthyl)methyl]-4-oxo-1-thia-3a-aza-7-indanylamino}-1-ethanone]
inhibition at 10 µM: 54% | inhibition at 50 µM: 87%

COC(=O)Nc1c(Cc2cccc3ccccc23)cc(=O)n2c1SC[C@H]2C(=O)Nc1ccccc1 [Example 27, {(3R)-7-(Methoxycarbonylamino)-6-[(1-naphthyl)methyl]-4-oxo-1-thia-3a-aza-3-indanyl}anilinoformaldehyde]
inhibition at 10 µM: 96% | inhibition at 50 µM: 98%

O=C(O)[C@@H]1CSc2c(OCC3CC3)c(Cc3cccc4ccccc34)cc(=O)n21 [Example 28, (3R)-7-(Cyclopropylmethoxy)-6-[(1-naphthyl)methyl]-4-oxo-1-thia-3a-aza-3-indancarboxylic acid]
inhibition at 100 µM: 56%

O=C(O)[C@@H]1CSc2c(C(F)(F)F)c(Cc3cccc4ccccc34)cc(=O)n21 [Example 29, (3R)-6-[(1-Naphthyl)methyl]-4-oxo-7-(trifluoromethyl)-1-thia-3a-aza-3-indancarboxylic acid]
inhibition at 100 µM: 56%

CC(C)COc1c(Cc2cccc3ccccc23)cc(=O)n2c1SC[C@H]2C(=O)O [Example 30, (3R)-7-Isobutoxy-6-[(1-naphthyl)methyl]-4-oxo-1-thia-3a-aza-3-indancarboxylic acid]
inhibition at 50 µM: 67% | inhibition at 100 µM: 90%

Cc1cccc(Cc2cc(=O)n3c(c2N(C)C)SC[C@H]3C(=O)O)c1C [Example 31, (3R)-7-(Dimethylamino)-4-oxo-6-[(2,3-xylyl)methyl]-1-thia-3a-aza-3-indancarboxylic acid]
inhibition at 50 µM: 29% | inhibition at 100 µM: 86%

Cc1ccc(Cc2cc(=O)n3c(c2N(C)C)SC[C@H]3C(=O)O)c2ccccc12 [Example 32, (3R)-7-(Dimethylamino)-6-[(4-methyl-1-naphthyl)methyl]-4-oxo-1-thia-3a-aza-3-indancarboxylic acid]
inhibition at 50 µM: 91% | inhibition at 100 µM: 99%

CC(C)Nc1c(Cc2cccc3ccccc23)cc(=O)n2c1SC[C@H]2C(=O)O [Example 33, (3R)-7-(Isopropylamino)-6-[(1-naphthyl)methyl]-4-oxo-1-thia-3a-aza-3-indancarboxylic acid]
inhibition at 100 µM: 50%
